pKi: −log10 of the molar value.
Target: T1, cathepsin K (Homo sapiens, UniProt P43235)
T1 sequence (P43235 115-329): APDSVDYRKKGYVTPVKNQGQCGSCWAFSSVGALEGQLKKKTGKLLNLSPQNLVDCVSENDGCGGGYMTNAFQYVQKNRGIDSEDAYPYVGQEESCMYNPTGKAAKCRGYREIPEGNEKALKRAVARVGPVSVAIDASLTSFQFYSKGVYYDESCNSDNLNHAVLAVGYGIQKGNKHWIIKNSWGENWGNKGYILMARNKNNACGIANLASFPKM
Assay: Cathepsin K inhibition studies (progress curve method, fluorogenic peptide substrate)
Type: biochemical
Details: human recombinant enzyme; substrate typically Cbz-Phe-Arg-AMC; 100 mM Na acetate pH 5.5, 20 mM cysteine, 5 mM EDTA, 10% DMSO
Method: Determination of Cathepsin K Proteolytic Catalytic Activity
All assays for cathepsin K were carried out with human recombinant enzyme. Standard assay conditions for the determination of kinetic constants used a fluorogenic peptide substrate, typically Cbz-Phe-Arg-AMC, and were determined in 100 mM Na acetate at pH 5.5 containing 20 mM cysteine and 5 mM EDTA. Stock substrate solutions were prepared at concentrations of 10 or 20 mM in DMSO with 20 uM final substrate concentration in the assays. All assays contained 10% DMSO. […] All assays were conducted at ambient temperature. Product fluorescence (excitation at 360 nm; emission at 460 nm) was monitored with a Perceptive Biosystems Cytofluor II fluorescent plate reader. […]
Potential inhibitors were evaluated using the progress curve method. […] For those compounds whose progress curves were linear, apparent inhibition constants (Ki,app) were calculated according to equation 1 (Brandt et al., Biochemitsry, 1989, 28, 140): […]
[AMC]=vsst+(v0−vss)[1−exp(−kobst)]/kobs (2) where [AMC] is the concentration of product formed over time t, v0 is the initial reaction velocity and vss is the final steady state rate. Values for kobs were then analyzed as a linear function of inhibitor concentration to generate an apparent second order rate constant (kobs/inhibitor concentration or kobs/[I]) describing the time-dependent inhibition. […]

In the case of CC(C)C[C@H](NS(=O)(=O)c1cccc2cccnc12)C(=O)NC1COCC1=O (stereo partly drawn) [4-(R,S)-Amino-N-[(8-quinolinesulfonyl)-S-leucine]-3-tetrahydrofuran-3-one], the pKi was < 5.00.

Reference: US6369077B1, “Protease inhibitors” (SmithKline Beecham Corporation, priority 1997, dated 2002)
